Source: ChEMBL document CHEMBL5038598, “Design and Synthesis of Pyrrolo[2,3-d]pyrimidine-Derived Leucine-Rich Repeat Kinase 2 (LRRK2) Inhibitors Using a Checkpoint Kinase 1 (CHK1)-Derived Crystallographic Surrogate” (J Med Chem, 2021)

Assays:
BCRP (human) = assay: Efflux ratio of apparent permeability in MDCK cells expressing human BCRP; assay type: ADME, cell-based, Canis lupus familiaris; conditions: dog
[1] = biological target: Leucine-rich repeat serine/threonine-protein kinase 2 (Homo sapiens, UniProt Q5S007); assay: Inhibition of recombinant human LRRK2 WT using fluorescein-labeled LRRKtide as substrate in presence of ATP preincubated for 50 mins followed by anti-phospho-LRRKtide antibody addition and measured after 30 mins by TR-FRET based Lanthascreen kinase activity assay
Leucine-rich repeat serine/threonine-protein kinase 2, sequence (Q5S007 whole entry): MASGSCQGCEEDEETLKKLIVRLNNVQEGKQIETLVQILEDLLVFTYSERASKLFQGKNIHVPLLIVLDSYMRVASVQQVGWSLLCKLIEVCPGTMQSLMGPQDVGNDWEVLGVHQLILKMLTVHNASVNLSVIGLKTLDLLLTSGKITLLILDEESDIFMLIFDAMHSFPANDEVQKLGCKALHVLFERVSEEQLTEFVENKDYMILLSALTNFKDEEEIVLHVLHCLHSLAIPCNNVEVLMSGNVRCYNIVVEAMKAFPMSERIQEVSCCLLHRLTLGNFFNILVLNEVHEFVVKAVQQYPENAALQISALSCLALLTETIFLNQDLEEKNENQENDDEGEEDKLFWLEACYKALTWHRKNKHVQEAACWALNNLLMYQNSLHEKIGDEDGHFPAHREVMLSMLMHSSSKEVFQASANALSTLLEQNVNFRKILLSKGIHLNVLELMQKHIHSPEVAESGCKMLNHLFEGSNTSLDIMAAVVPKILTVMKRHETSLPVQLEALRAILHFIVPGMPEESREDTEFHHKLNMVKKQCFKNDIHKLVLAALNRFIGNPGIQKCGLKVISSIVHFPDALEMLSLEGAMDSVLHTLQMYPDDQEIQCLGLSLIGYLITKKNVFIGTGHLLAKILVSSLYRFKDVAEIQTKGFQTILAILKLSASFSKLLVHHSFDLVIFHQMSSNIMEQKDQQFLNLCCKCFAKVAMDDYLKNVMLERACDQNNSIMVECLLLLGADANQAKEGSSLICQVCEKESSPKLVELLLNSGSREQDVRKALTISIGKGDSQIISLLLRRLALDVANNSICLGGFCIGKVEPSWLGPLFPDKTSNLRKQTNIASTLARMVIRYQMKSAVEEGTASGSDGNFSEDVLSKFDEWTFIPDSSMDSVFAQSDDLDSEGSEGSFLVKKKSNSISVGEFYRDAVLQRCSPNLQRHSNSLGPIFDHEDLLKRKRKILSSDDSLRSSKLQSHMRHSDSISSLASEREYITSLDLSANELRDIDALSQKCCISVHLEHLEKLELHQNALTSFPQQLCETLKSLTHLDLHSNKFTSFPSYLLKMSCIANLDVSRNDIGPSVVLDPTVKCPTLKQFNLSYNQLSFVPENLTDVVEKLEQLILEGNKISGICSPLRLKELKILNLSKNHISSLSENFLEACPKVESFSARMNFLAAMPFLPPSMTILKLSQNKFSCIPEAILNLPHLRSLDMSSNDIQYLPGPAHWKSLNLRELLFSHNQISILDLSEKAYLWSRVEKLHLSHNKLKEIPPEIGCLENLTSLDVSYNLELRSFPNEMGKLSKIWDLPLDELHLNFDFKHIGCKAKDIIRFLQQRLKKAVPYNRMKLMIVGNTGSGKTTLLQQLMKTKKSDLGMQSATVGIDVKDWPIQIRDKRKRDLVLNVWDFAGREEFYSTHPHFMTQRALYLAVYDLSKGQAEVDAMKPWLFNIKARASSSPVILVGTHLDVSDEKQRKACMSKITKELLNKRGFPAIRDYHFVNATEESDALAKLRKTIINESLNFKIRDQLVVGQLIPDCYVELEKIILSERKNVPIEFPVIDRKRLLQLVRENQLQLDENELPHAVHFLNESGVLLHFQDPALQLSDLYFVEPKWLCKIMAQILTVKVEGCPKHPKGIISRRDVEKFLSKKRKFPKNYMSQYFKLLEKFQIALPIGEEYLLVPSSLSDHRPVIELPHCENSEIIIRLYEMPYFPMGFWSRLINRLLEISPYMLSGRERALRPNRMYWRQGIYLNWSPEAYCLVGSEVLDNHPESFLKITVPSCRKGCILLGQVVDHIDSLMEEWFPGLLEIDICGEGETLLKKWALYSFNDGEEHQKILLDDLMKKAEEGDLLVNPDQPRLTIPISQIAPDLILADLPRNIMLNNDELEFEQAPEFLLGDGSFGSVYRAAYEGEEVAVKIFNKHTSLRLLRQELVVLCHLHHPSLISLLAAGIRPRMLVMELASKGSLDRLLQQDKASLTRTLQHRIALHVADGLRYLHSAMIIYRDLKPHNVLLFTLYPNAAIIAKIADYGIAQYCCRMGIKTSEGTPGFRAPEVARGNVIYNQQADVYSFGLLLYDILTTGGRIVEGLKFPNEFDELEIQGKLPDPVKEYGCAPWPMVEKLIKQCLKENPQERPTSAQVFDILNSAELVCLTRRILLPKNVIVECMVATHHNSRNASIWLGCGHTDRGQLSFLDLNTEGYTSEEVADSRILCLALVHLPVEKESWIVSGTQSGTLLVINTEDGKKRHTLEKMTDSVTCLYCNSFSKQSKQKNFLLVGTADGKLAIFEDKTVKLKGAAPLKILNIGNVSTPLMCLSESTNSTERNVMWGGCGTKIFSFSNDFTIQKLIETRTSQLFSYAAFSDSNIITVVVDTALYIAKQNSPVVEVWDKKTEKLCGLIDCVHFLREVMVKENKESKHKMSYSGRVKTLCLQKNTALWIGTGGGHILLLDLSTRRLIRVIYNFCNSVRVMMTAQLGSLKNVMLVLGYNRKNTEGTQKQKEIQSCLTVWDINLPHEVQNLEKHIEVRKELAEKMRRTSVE

[2] = Clearance in human liver microsomes; assay type: ADME, Microsome; conditions: read-out: CLH (converted)
[3] = Ratio of drug level in Mdr1A deficient C57BL/6 mouse brain to plasma at 5 mg/kg, sc and measured after 0.5 hrs; assay type: ADME, organism-based
[4] = biological target: T1, Interleukin-1 receptor-associated kinase 3 (Homo sapiens) (UniProt Q9Y616); assay: Inhibition of IRAK3 expressed in human PBMCs measured at 10 uM by KiNativ profiling analysis relative to control
T1 sequence (whole entry): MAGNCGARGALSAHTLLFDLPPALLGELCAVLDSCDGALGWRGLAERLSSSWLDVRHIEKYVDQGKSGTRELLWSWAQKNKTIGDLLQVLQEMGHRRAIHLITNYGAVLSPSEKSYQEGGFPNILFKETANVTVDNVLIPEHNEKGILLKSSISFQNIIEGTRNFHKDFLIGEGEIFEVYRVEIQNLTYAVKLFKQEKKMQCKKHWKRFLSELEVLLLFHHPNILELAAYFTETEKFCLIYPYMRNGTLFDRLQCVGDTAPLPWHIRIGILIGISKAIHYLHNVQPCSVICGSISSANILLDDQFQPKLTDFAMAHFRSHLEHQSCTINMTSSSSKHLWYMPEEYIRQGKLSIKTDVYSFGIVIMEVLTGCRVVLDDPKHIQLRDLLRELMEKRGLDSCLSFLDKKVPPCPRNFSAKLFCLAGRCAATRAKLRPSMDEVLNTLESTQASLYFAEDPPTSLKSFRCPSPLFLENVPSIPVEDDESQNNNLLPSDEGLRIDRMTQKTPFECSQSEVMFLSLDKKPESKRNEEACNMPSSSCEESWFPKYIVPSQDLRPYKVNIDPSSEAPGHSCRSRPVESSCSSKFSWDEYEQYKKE

[5] = Drug uptake in mdrla-deficient C57BL/6 mouse plasma at 5 mg/kg, sc and measured after 0.5 hrs; assay type: ADME, organism-based
[6] = Drug uptake in P-gp la-deficient C57BL/6 mouse brain at 5 mg/kg, sc and measured after 0.5 hrs; assay type: ADME, organism-based; conditions: read-out: Drug uptake
[7] = Ratio of drug level in C57BL/6 WT mouse brain to plasma at 5 mg/kg, sc and measured after 0.5 hrs; assay type: ADME, organism-based; conditions: for Kp at 0.5 h: C57BL/6, mouse, brain and plasma
[8] = Volume of distribution in steady state in Beagle dog plasma at 1 mg/kg, IV […]; assay type: ADME, organism-based, Canis lupus familiaris; conditions: read-out: Vdss
[9] = Ratio of unbound drug level in Md1a deficient C57BL/6 mouse brain to plasma at 5 mg/kg, sc and measured after 0.5 hrs; assay type: ADME, organism-based
[10] = Ratio of drug level in Mdr1A deficient C57BL/6 mouse brain to plasma at 5 mg/kg, sc and measured after 1 hrs; assay type: ADME, organism-based
[11] = Ratio of unbound drug level in C57BL/6 WT mouse brain to plasma measured at 5 mg/kg, sc and measured after 1 hrs; assay type: ADME, organism-based; conditions: C57BL/6, mouse
[12] = Ratio of unbound drug level in Md1a deficient C57BL/6 mouse brain to plasma at 5 mg/kg, sc and measured after 1 hrs; assay type: ADME, organism-based
[13] = Drug uptake in Mdr1a deficient C57BL/6 mouse plasma at 5 mg/kg, sc and measured after 1 hrs; assay type: ADME, organism-based
[14] = Drug uptake in C57BL/6 WT mouse plasma at 5 mg/kg, sc and measured after 1 hrs; assay type: ADME, organism-based; conditions: C57BL/6, mouse
[15] = Drug uptake in C57BL/6 WT mouse brain at 5 mg/kg, sc and measured after 0.5 hrs; assay type: ADME, organism-based; conditions: C57BL/6, mouse, read-out: Drug uptake
[16] = Drug uptake in Mdr1a deficient C57BL/6 mouse brain at 5 mg/kg, sc and measured after 1 hrs; assay type: ADME, organism-based; conditions: read-out: Drug uptake
[17] = Drug uptake in C57BL/6 WT mouse plasma at 5 mg/kg, sc and measured after 0.5 hrs; assay type: ADME, organism-based; conditions: C57BL/6, mouse
[18] = Ratio of drug level in C57BL/6 WT mouse brain to plasma at 5 mg/kg, sc and measured after 1 hrs; assay type: ADME, organism-based; conditions: C57BL/6, mouse
[19] = Drug uptake in C57BL/6 WT mouse brain at 5 mg/kg, sc and measured after 1 hrs; assay type: ADME, organism-based; conditions: C57BL/6, mouse, read-out: Drug uptake

Cc1c(Nc2nc(N)c3c(C#N)c(N4CCC[C@H]4C)n(C)c3n2)cnn1[C@@H]1CCOC1
efflux ratio (BCRP (human)): 34 | IC50 [1]: 20 nM | CLint scaled [2]: 28.3 mL/min/kg | Kp at 0.5 h [3]: 0.31 | inhibition [4]: -6% | concentration at 0.5 h [5]: 2140 ng/mL | concentration at 0.5 h [6]: 256 ng/g | Kp at 0.5 h [7]: 0.06 | Ratio ([7]; mouse, brain, 5 mg/kg, 0.5 h): 0.07 | Vd [8]: 1 L/kg | Kp uu at 0.5 h [9]: 0.11

Cc1c(Nc2nc(N)c3c(C#N)c(N4CCC[C@H]4C)n(C)c3n2)cnn1[C@H]1CCOC1
Kp at 1 h [10]: 0.15 | efflux ratio (BCRP (human)): 22 | Kp uu at 1 h [11]: 0.014 | IC50 [1]: 23 nM | Kp uu at 1 h [12]: 0.056 | CLint scaled [2]: 23.3 mL/min/kg | concentration at 1 h [13]: 100 ng/mL | concentration at 1 h [14]: 440 ng/mL | inhibition [4]: 37% | Kp at 0.5 h [7]: 0.15 | concentration at 0.5 h [15]: 73 ng/g | Vd [8]: 1.8 L/kg | concentration at 1 h [16]: 675 ng/g | concentration at 0.5 h [17]: 1610 ng/mL | Kp at 1 h [18]: 0.04 | concentration at 1 h [19]: 17 ng/g
